Assay results published in EPA's ToxRefDB 2.

What was measured:
[1] = system: mouse; conditions: Subchronic oral toxicity in rodents, b6c3f1, Feed, dose end: 13 week, group: systemic
[2] = system: mouse; conditions: Carcinogenicity; b6c3f1; Oral; Feed; dose end: 104 week; group: systemic; systemic / in life observation / body weight / body weight
[3] = system: rat; conditions: Carcinogenicity; fischer; Oral; Feed; dose end: 104 week; group: systemic; systemic / in life observation / body weight / body weight + systemic / pathology microscopic / kidney / cytomegaly + systemic / pathology …
[4] = system: rat; conditions: Subchronic oral toxicity in rodents, fischer, Feed, dose end: 13 week, group: systemic
[5] = system: rat; conditions: Prenatal developmental toxicity study, sprague dawley, Oral, Gavage/Intubation, dose end: 15 GD
[6] = system: mouse; conditions: Carcinogenicity, cd1, Oral, Feed, dose end: 2 year, group: systemic
[7] = system: rat; conditions: Combined chronic toxicity/carcinogenicity, sprague dawley, Oral, Feed, dose end: 24 month, group: systemic
[8] = system: mouse; conditions: Combined chronic toxicity/carcinogenicity, other, Oral, Feed, dose end: 80 week, group: systemic
[9] = system: rat; conditions: Combined chronic toxicity/carcinogenicity; wistar; Oral; Feed; dose end: 2 year; group: systemic; systemic / in life observation / body weight / body weight gain + systemic / in life observation / food consumption / food consumption + …
[10] = system: dog; conditions: Chronic toxicity; beagle; Oral; Capsule; dose end: 52 week; group: systemic; systemic / clinical chemistry / alanine aminotransferase (alt/sgpt) / alanine aminotransferase (alt/sgpt) + systemic / in life observation…
[11] = system: rat; conditions: Subchronic oral toxicity in rodents, fischer, Gavage/Intubation, dose end: 13 week, group: systemic, systemic / in life observation / body weight / body weight
[12] = system: mouse; conditions: Carcinogenicity, b6c3f1, Oral, Gavage/Intubation, dose end: 2 year, group: systemic
[13] = system: mouse; conditions: Subchronic oral toxicity in rodents, b6c3f1, Gavage/Intubation, dose end: 13 week, group: systemic
[14] = systemic / in life observation / body weight / body weight
[15] = systemic / in life observation / food consumption / food consumption
[16] = group: developmental, developmental / developmental malformation / bone / incomplete ossification + developmental / developmental malformation / interparietal / …
[17] = group: maternal, systemic / in life observation / body weight / body weight + systemic / in life observation / food consumption / food consumption
[18] = group: maternal, systemic / in life observation / body weight / body weight + systemic / in life observation / food consumption / food consumption + systemic…
[19] = systemic / pathology microscopic / heart / degeneration
[20] = systemic / pathology microscopic / heart / degeneration + systemic / pathology microscopic / liver / hemosiderin laden macrophages
[21] = systemic / pathology microscopic / mammary gland / adenocarcinoma
[22] = systemic / in life observation / body weight / body weight + systemic / organ weight / kidney / relative to body weight + systemic / organ …
[23] = systemic / organ weight / liver / relative to body weight
[24] = systemic / pathology microscopic / liver / vacuolization + systemic / pathology microscopic / thyroid gland / hyperplasia
[25] = systemic / pathology microscopic / liver / vacuolization + systemic / pathology microscopic / thyroid gland / hyperplasia + systemic / …
[26] = systemic / pathology microscopic / stomach / inflammation
[27] = systemic / pathology microscopic / stomach / inflammation + systemic / in life observation / body weight / body weight + systemic / …

## CN(C)C(=O)Nc1ccc(Cl)cc1 [Monuron]
[1]; [14]
  LEL: 450 mg/kg/day
  LOAEL: 1800 mg/kg/day
  NEL: < 450 mg/kg/day
[1]; systemic / in life observation / body weight / body weight + systemic / in life observation / mortality / mortality + systemic / pathology …
  NOAEL: 900 mg/kg/day
[2]
  LEL: 750 mg/kg/day
  LOAEL: 750 mg/kg/day
  NEL: < 750 mg/kg/day
  NOAEL: < 750 mg/kg/day
[3]
  LEL: 37.5 mg/kg/day
  LOAEL: 75 mg/kg/day
  NEL: < 37.5 mg/kg/day
  NOAEL: 37.5 mg/kg/day
[4]; [14]
  LOAEL: 75 mg/kg/day
[4]; systemic / in life observation / body weight / body weight + systemic / in life observation / food consumption / food consumption + systemic…
  NOAEL: 37.5 mg/kg/day
[4]; [15]
  LEL: 37.5 mg/kg/day
  NEL: < 37.5 mg/kg/day

## CC(C)Nc1nc(Cl)nc(NC(C)C)n1 [Propazine]
[5]; [16]
  LOAEL: 100 mg/kg/day
  NEL: 10 mg/kg/day
  NOAEL: 10 mg/kg/day
[5]; group: developmental, developmental / developmental malformation / interparietal / incomplete ossification
  LEL: 100 mg/kg/day
[5]; [17]
  LEL: 100 mg/kg/day
  LOAEL: 100 mg/kg/day
[5]; [18]
  NEL: 10 mg/kg/day
  NOAEL: 10 mg/kg/day
[6]; [19]
  NEL: 150 mg/kg/day
  NOAEL: 150 mg/kg/day
[6]; [20]
  LEL: 450 mg/kg/day
  LOAEL: 450 mg/kg/day
[7]; [14]
  LOAEL: 51 mg/kg/day
[7]; systemic / in life observation / body weight / body weight + systemic / in life observation / body weight / body weight gain
  NOAEL: 5.2 mg/kg/day
[7]; [21]
  LEL: 0.2 mg/kg/day
  NEL: < 0.2 mg/kg/day

## C/C=C/C=C/C(=O)O [Sorbic acid]
[8]; [22]
  LOAEL: > 15000 mg/kg/day
  NOAEL: ≥ 15000 mg/kg/day
[8]; [23]
  LEL: 1500 mg/kg/day
  NEL: < 1500 mg/kg/day
[9]
  LEL: 5000 mg/kg/day
  LOAEL: > 5000 mg/kg/day
  NEL: 750 mg/kg/day
  NOAEL: ≥ 5000 mg/kg/day

## CNC(=O)N(C)c1nnc(C(C)(C)C)s1 [Tebuthiuron]
[10]
  LEL: 50 mg/kg/day
  LOAEL: 50 mg/kg/day
  NEL: 25 mg/kg/day
  NOAEL: 25 mg/kg/day

## CCCCC(CC)COP(=O)(OCC(CC)CCCC)OCC(CC)CCCC (stereo unspecified) [Tris(2-ethylhexyl) phosphate]
[11]
  LEL: 2000 mg/kg/day
  LOAEL: 2000 mg/kg/day
  NEL: 1000 mg/kg/day
  NOAEL: 1000 mg/kg/day
[12]; [24]
  LEL: 500 mg/kg/day
  NEL: < 500 mg/kg/day
[12]; [25]
  LOAEL: > 1000 mg/kg/day
  NOAEL: ≥ 1000 mg/kg/day
[13]; [26]
  LEL: 500 mg/kg/day
  NEL: < 500 mg/kg/day
[13]; [27]
  LOAEL: 8000 mg/kg/day
  NOAEL: 4000 mg/kg/day
